Data from US10040805B2, “Substituted imidazo[1,5-a]pyrazines as Btk inhibitors” (MERCK SHARP & DOHME CORP., priority 2014, dated 2018).

Target: BTK enzyme (full-length BTK, hBTK) (Homo sapiens (Human), UniProt Q06187)
Assay: Btk enzyme activity assay, LANCE TR-FRET
Assay type: biochemical
Conditions: 50 pM hBTK, 2 μM biotin-A5-peptide, 25 μM ATP, 60 minute compound & enzyme incubation, read-out: BTK binding IC50
Method: BTK enzymatic activity was determined with the LANCE (Lanthanide Chelate Excite) TR-FRET (Time-resolved fluorescence resonance energy transfer) assay. In this assay, the potency (IC50) of each compound was determined from an eleven point (1:3 serial dilution; final compound concentration range in assay from 1 μM to 0.017 nM) titration curve using the following outlined procedure. To each well of a black non-binding surface Corning 384-well microplate (Corning Catalog #3820), 5 nL of compound (2000 fold dilution in final assay volume of 10 μL) was dispensed, followed by the addition of 7.5 μL of 1× kinase buffer (50 mM Hepes 7.5, 10 mM MgCl2, 0.01% Brij-35, 1 mM EGTA, 0.05% BSA & 1 mM DTT) containing 5.09 pg/μL (66.67 pM) of BTK enzyme (recombinant protein from baculovirus-transfected Sf9 cells: full-length BTK, 6HIS-tag cleaved). Following a 60 minute compound & enzyme incubation, each reaction was initiated by the addition of 2.5 μL 1× kinase buffer containing 8 μM biotinylated “A5” peptide (Biotin-EQEDEPEGDYFEWLE-NH2) (SEQ. ID. NO.: 1), and 100 μM ATP. The final reaction in each well of 10 μL consists of 50 pM hBTK, 2 μM biotin-A5-peptide, and 25 μM ATP. Phosphorylation reactions were allowed to proceed for 120 minutes. Reactions were immediately quenched by the addition of 20 uL of 1× quench buffer (15 mM EDTA, 25 mM Hepes 7.3, and 0.1% Triton X-100) containing detection reagents (0.626 nM of LANCE-Eu-W1024-anti-phosphoTyrosine antibody, PerkinElmer and 86.8 nM of Streptavidin-conjugated Dylight 650, Dyomics/ThermoFisher Scientific). After 60 minutes incubation with detection reagents, reaction plates were read on a PerkinElmer EnVision plate reader using standard TR-FRET protocol. Briefly, excitation of donor molecules (Eu-chelate:anti-phospho-antibody) with a laser light source at 337 nm produces energy that can be transferred to Dylight-650 acceptor molecules if this donor:acceptor pair is within close proximity. Fluorescence intensity at both 665 nm (acceptor) and 615 nm (donor) are measured and a TR-FRET ratio calculated for each well (acceptor intensity/donor intensity). IC50 values were determined by 4 parameter robust fit of TR-FRET ratio values vs. (Log10) compound concentrations.

Chain of BTK enzyme (full-length BTK, hBTK) (Q06187 whole entry): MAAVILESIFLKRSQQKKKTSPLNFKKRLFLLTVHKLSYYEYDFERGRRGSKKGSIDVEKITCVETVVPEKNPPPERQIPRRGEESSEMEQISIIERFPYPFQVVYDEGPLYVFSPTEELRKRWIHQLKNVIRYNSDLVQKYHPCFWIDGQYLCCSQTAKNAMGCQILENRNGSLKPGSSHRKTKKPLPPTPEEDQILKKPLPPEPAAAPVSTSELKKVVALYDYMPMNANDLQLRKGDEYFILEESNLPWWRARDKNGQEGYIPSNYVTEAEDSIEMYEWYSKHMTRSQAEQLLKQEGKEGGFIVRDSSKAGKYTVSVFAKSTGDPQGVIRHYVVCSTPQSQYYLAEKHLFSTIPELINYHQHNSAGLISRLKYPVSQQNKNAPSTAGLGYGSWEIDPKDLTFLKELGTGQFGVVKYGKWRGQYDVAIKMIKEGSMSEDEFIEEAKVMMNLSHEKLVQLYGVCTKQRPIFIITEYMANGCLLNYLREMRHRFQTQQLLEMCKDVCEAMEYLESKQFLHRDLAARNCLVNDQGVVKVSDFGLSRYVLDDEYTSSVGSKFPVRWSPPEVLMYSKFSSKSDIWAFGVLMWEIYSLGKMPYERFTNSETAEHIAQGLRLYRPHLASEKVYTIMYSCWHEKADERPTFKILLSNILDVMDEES

Compound	IC50 [nM]
C[C@@]1(c2nc(-c3ccc(C(=O)Nc4cc(C5CC5)ccn4)cc3F)c3c(N)nccn23)CC[C@H]2COC(=O)N2C1 [Example 10, 4-{8-amino-3-[(6R,8aS)-6-methyl-3-oxohexahydro[1,3]oxazolo[3,4-a]pyridin-6-yl]imidazo[1,5-a]pyrazin-1-yl}-N-(4-cyclopropylpyridin-2-yl)-3-fluorobenzamide]	0.18
CCOc1cc(C(=O)Nc2cc(C(F)(F)F)n(C)n2)ccc1-c1nc([C@]2(C)CC[C@H]3COC(=O)N3C2)n2ccnc(N)c12 [Example 8, 4-{8-amino-3-[(6R,8aS)-6-methyl-3-oxohexahydro[1,3]oxazolo[3,4-a]pyridin-6-yl]imidazo[1,5-a]pyrazin-1-yl}-3-ethoxy-N-[1-methyl-5-(trifluoromethyl)-1H-pyrazol-3-yl]benzamide]	0.7
CCOc1cc(C(=O)Nc2cc(C(F)(F)F)n(C)n2)ccc1-c1nc([C@@]2(C)CC[C@@H]3CN(C(C)C)CC(=O)N3C2)n2ccnc(N)c12 [Example 4, 4-(8-amino-3-((7S,9aR)-2-isopropyl-7-methyl-4-oxooctahydro-1H-pyrido[1,2-a]pyrazin-7-yl)imidazo[1,5-a]pyrazin-1-yl)-3-ethoxy-N-(1-methyl-5-(trifluoromethyl)-1H-pyrazol-3-yl)benzamide bis(2,2,2-trifluoroacetate)]	2.5
CCOc1cc(C(=O)Nc2cc(C(F)(F)F)ccn2)ccc1-c1nc([C@@]2(C)CC[C@@H]3COC(=O)N3C2)n2ccnc(N)c12 [Example 1, 4-(8-amino-3-((6S,8aR)-6-methyl-3-oxohexahydro-1H-oxazolo[3,4-a]pyridin-6-yl)imidazo[1,5-a]pyrazin-1-yl)-3-ethoxy-N-(4-(trifluoromethyl)pyridin-2-yl)benzamide]	0.61
CCOc1cc(C(=O)Nc2cc(C(F)(F)F)n(C)n2)ccc1-c1nc([C@]2(C)CC[C@H]3CN(C(C)C)CC(=O)N3C2)n2ccnc(N)c12 [Example 15, 4-{8-amino-3-[(7R,9aS)-7-methyl-2-(1-methylethyl)-4-oxooctahydro-2H-pyrido[1,2-a]pyrazin-7-yl]imidazo[1,5-a]pyrazin-1-yl}-3-ethoxy-N-[1-methyl-5-(trifluoromethyl)-1H-pyrazol-3-yl]benzamide]	1.27
C[C@@]1(c2nc(-c3ccc(C(=O)Nc4cc(C(F)(F)F)ccn4)cc3)c3c(N)nccn23)CC[C@H]2CCC(=O)N2C1 [Example 17, 4-(8-amino-3-((6R,8aS)-6-methyl-3-oxooctahydroindolizin-6-yl)imidazo[1,5-a]pyrazin-1-yl)-N-(4-(trifluoromethyl)pyridin-2-yl)benzamide]	0.18
CCOc1cc(C(=O)Nc2cc(C(F)(F)F)ccn2)ccc1-c1nc([C@]2(C)CC[C@H]3CN(C(C)C)CC(=O)N3C2)n2ccnc(N)c12 [Example 14, 4-{8-amino-3-[(7R,9aS)-7-methyl-2-(1-methylethyl)-4-oxooctahydro-2H-pyrido[1,2-a]pyrazin-7-yl]imidazo[1,5-a]pyrazin-1-yl}-3-ethoxy-N-[4-(trifluoromethyl)pyridin-2-yl] benzamide]	0.42
CCOc1cc(C(=O)Nc2cc(C(F)(F)F)ccn2)cc(F)c1-c1nc([C@]2(C)CC[C@H]3COC(=O)N3C2)n2ccnc(N)c12 [Example 11, 4-{8-amino-3-[(6R,8aS)-6-methyl-3-oxohexahydro[1,3]oxazolo[3,4-a]pyridin-6-yl]imidazo[1,5-a]pyrazin-1-yl}-3-ethoxy-5-fluoro-N-[4-(trifluoromethyl)pyridin-2-yl] benzamide]	0.59
CCOc1cc(C(=O)Nc2cc(C(F)(F)F)ccn2)ccc1-c1nc(C2(CC)CCC3CCN(CC)C(=O)N3C2)n2ccnc(N)c12 (single isomer, unassigned) [Example 6, 4-[8-amino-3-(2,7-diethyl-1-oxooctahydro-1H-pyrido[1,2-c]pyrimidin-7-yl)imidazo[1,5-a]pyrazin-1-yl]-3-ethoxy-N-[4-(trifluoromethyl)pyridin-2-yl] benzamide]	215
CCOc1cc(C(=O)Nc2cc(C(F)(F)F)n(C)n2)c(Cl)cc1-c1nc([C@]2(C)CC[C@H]3CN(C(C)C)CC(=O)N3C2)n2ccnc(N)c12 [Example 16, 4-{8-amino-3-[(7R,9aS)-7-methyl-2-(1-methylethyl)-4-oxooctahydro-2H-pyrido[1,2-a]pyrazin-7-yl]imidazo[1,5-a]pyrazin-1-yl}-2-chloro-5-ethoxy-N-[1-methyl-5-(trifluoromethyl)-1H-pyrazol-3-yl] benzamide]	3.41
CCOc1cc(C(=O)Nc2cc(C(F)(F)F)ccn2)ccc1-c1nc(C2(C)CCC3CCN(C)C(=O)N3C2)n2ccnc(N)c12 (stereo not shown) [Example 12, 4-[8-amino-3-(2,7-dimethyl-1-oxooctahydro-1H-pyrido[1,2-c]pyrimidin-7-yl)imidazo[1,5-a]pyrazin-1-yl}-3-ethoxy-N-[4-(trifluoromethyl)pyridin-2-yl] benzamide]	411
CCOc1cc(C(=O)Nc2cc(C(F)(F)F)ccn2)ccc1-c1nc(C2(CC)CCC3CCN(CC)C(=O)N3C2)n2ccnc(N)c12 (single isomer, unassigned) [Example 5, 4-[8-amino-3-(2,7-diethyl-1-oxooctahydro-1H-pyrido[1,2-c]pyrimidin-7-yl)imidazo[1,5-a]pyrazin-1-yl]-3-ethoxy-N-[4-(trifluoromethyl)pyridin-2-yl] benzamide]	1000
C[C@@]1(c2nc(-c3ccc(C(=O)Nc4cc(C(F)(F)F)ccn4)cc3F)c3c(N)nccn23)CC[C@H]2COC(=O)N2C1 [Example 9, 4-{8-amino-3-[(6R,8aS)-6-methyl-3-oxohexahydro[1,3]oxazolo[3,4-a]pyridin-6-yl]imidazo[1,5-a]pyrazin-1-yl}-3-fluoro-N-[4-(trifluoromethyl)pyridin-2-yl] benzamide]	0.22
COc1cc(C(=O)Nc2cc(C(F)(F)F)ccn2)ccc1-c1nc([C@]2(C)CC[C@H]3CCC(=O)N3C2)n2ccnc(N)c12 [Example 19, 4-(8-amino-3-((6R,8aS)-6-methyl-3-oxooctahydroindolizin-6-yl)imidazo[1,5-a]pyrazin-1-yl)-3-methoxy-N-(4-(trifluoromethyl)pyridin-2-yl)benzamide]	0.33
CCOc1cc(C(=O)Nc2cc(C(F)(F)F)ccn2)ccc1-c1nc([C@]2(C)CC[C@H]3COC(=O)N3C2)n2ccnc(N)c12 [Example 7]	0.59
CCOc1cc(C(=O)Nc2cc(C(F)(F)F)ccn2)ccc1-c1nc([C@@]2(C)CC[C@@H]3CN(C(C)C)CC(=O)N3C2)n2ccnc(N)c12 [Example 3, 4-(8-amino-3-((7S,9aR)-2-isopropyl-7-methyl-4-oxooctahydro-1H-pyrido[1,2-a]pyrazin-7-yl)imidazo[1,5-a]pyrazin-1-yl)-3-ethoxy-N-(4-(trifluoromethyl)pyridin-2-yl)benzamide bis(2,2,2-trifluoroacetate)]	0.61
CCOc1cc(C(=O)Nc2cc(C(F)(F)F)n(C)n2)ccc1-c1nc([C@@]2(C)CC[C@@H]3COC(=O)N3C2)n2ccnc(N)c12 [Example 2, 4-(8-amino-3-((6S,8aR)-6-methyl-3-oxohexahydro-1H-oxazolo[3,4-a]pyridin-6-yl)imidazo[1,5-a]pyrazin-1-yl)-3-ethoxy-N-(1-methyl-5-(trifluoromethyl)-1H-pyrazol-3-yl)benzamide]	3.07
CCOc1cc(C(=O)Nc2cc(C(F)(F)F)ccn2)ccc1-c1nc([C@]2(C)CC[C@H]3CCC(=O)N3C2)n2ccnc(N)c12 [Example 18, 4-(8-amino-3-((6R,8aS)-6-methyl-3-oxooctahydroindolizin-6-yl)imidazo[1,5-a]pyrazin-1-yl)-3-ethoxy-N-(4-(trifluoromethyl)pyridin-2-yl)benzamide]	0.44
CCOc1cc(C(=O)Nc2cc(C(F)(F)F)ccn2)ccc1-c1nc(C2(C)CCC3CCN(C)C(=O)N3C2)n2ccnc(N)c12 (stereo not shown) [Example 13, 4-[8-amino-3-(2,7-dimethyl-1-oxooctahydro-1H-pyrido[1,2-c]pyrimidin-7-yl)imidazo[1,5-a]pyrazin-1-yl]-3-ethoxy-N-[4-(trifluoromethyl)pyridin-2-yl] benzamide]	10
